Four compounds from publication PMC8911752, “The Synthesis and Initial Evaluation of MerTK Targeted PET Agents” (Molecules, 2022) can be followed below.

Molecules are shown by their SMILES. pIC50: −log10 of the molar value.

Common to all, as to type: biochemical
The target in one assay is T1, MerTK (Homo sapiens, UniProt Q12866).
T1 sequence (Q12866 21-999): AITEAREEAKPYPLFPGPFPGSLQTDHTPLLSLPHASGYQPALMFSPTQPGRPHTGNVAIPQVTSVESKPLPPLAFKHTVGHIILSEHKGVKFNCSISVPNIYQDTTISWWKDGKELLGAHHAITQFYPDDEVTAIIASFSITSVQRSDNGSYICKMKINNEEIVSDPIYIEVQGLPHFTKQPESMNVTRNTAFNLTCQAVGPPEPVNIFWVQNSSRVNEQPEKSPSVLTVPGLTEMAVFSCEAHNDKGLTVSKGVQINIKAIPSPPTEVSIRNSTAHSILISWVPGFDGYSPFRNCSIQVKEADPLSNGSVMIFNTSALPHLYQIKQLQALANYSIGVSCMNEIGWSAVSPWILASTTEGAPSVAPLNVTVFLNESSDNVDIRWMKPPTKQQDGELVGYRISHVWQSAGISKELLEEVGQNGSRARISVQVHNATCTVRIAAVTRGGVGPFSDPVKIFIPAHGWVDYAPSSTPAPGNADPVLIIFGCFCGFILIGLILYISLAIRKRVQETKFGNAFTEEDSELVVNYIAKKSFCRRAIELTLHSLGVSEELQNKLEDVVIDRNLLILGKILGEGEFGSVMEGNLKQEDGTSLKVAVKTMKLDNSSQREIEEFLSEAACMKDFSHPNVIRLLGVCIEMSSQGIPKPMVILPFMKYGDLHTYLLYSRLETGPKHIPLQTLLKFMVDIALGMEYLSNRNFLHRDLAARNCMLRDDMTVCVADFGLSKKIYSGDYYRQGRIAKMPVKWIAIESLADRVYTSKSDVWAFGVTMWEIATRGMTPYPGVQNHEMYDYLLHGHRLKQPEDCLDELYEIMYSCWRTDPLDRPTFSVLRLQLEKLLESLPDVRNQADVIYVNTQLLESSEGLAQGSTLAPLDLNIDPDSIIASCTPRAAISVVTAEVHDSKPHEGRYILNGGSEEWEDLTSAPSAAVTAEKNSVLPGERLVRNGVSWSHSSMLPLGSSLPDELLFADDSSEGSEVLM
The experiment in a line: Microcapillary electrophoresis (MCE) kinase assay, MerTK. The settings on record: for pIC50: MCE assay, ATP at Km, mean of two or more independent assays; for selectivity over Axl, Tyro3 and Flt3: MerTK versus Axl, Tyro3, Flt3 in MCE assays. The protocol:
(§1) The inhibitory activities of standards towards MerTK, Axl, Tyro3 and Flt3 were determined in our in-house microcapillary electrophoresis (MCE) assays.
(§2) Microcapillary Electrophoresis (MCE) Assays were performed with literature method. […] All reactions were terminated by addition of 20 µL of 70 mM EDTA. After an 180 min incubation, phosphorylated and unphosphorylated substrate peptides (Table 2) were separated in buffer supplemented with 1 x CR-8 on a LabChip EZ Reader equipped with a 12-sipper chip. Data were analyzed using EZ Reader software.

The target in the next assay is T2, Axl (Homo sapiens, UniProt P30530).
T2 sequence (P30530 26-894): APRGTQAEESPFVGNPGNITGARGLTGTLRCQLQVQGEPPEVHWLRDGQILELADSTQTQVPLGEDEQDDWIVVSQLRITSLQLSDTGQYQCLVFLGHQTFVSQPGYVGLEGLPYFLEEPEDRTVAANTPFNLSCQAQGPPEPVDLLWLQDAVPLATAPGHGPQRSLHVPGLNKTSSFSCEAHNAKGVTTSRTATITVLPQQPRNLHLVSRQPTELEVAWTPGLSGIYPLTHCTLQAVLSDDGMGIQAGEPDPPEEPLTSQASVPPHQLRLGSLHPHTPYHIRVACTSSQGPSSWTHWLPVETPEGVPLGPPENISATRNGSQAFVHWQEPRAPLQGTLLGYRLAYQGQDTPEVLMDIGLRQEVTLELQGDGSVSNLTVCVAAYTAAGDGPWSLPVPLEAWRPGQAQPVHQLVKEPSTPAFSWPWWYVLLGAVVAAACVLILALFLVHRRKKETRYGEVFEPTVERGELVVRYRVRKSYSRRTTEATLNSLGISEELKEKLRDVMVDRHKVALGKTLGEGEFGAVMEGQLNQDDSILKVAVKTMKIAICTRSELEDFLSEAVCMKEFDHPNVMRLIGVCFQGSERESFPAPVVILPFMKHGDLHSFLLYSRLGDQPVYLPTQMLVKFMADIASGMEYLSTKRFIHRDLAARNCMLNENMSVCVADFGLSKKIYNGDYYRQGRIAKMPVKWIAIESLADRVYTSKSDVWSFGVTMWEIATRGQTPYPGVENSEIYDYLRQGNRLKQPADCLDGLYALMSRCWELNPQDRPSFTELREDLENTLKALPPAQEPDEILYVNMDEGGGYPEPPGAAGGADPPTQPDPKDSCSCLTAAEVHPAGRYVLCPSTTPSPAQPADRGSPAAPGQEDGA
Briefly: Microcapillary electrophoresis (MCE) kinase assay, Axl. The settings on record: ATP at Km, mean of two or more independent assays. As to the method: as §1, §2

The target in a further assay is T3, Flt3 (Homo sapiens, UniProt P36888).
T3 sequence (P36888 27-993): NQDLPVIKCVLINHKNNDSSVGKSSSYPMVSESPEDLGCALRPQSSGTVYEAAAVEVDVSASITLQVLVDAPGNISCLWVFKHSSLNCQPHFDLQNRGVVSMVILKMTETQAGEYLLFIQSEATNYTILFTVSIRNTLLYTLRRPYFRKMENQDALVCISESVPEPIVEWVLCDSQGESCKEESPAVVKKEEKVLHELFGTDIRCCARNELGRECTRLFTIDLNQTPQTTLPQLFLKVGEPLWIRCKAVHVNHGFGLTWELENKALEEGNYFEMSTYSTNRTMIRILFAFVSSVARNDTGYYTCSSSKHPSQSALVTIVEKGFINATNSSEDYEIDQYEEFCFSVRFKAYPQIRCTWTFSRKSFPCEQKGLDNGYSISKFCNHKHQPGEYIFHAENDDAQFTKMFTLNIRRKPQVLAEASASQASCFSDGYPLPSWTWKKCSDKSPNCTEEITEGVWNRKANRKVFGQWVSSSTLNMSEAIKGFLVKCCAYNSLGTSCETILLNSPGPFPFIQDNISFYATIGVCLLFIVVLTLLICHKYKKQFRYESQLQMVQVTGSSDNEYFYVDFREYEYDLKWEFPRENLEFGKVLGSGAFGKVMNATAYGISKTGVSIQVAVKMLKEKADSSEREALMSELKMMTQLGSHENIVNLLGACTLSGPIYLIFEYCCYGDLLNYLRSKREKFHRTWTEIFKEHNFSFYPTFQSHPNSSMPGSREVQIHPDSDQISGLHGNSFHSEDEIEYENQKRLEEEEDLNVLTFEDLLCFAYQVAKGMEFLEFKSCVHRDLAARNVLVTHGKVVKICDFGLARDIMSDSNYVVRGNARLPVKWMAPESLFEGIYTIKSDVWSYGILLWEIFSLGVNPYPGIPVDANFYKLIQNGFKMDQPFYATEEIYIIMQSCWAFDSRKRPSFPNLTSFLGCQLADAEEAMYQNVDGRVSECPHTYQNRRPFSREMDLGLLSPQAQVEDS
Briefly: Microcapillary electrophoresis (MCE) kinase assay, Flt3. The settings on record: ATP at Km, mean of two or more independent assays. As to the method:
as §1, §2

`C[C@H](Nc1ncc2c(C3CCN(C)CC3)cn([C@H]3CC[C@H](O)CC3)c2n1)c1ccccc1` [MerTK-2]: the pIC50 (commonly the negative decadic logarithm of the IC50, by convention in mol/L) was 7.21 on MerTK, 5.77 at Axl and less than 4.52 on Flt3. The “selectivity over Axl, Tyro3 and Flt3” value at MerTK was “Good selectivity”.
Take `C[C@H](Nc1ncc2c(C3CCN(C(=S)Nc4ccc(CC5CN(CC(=O)O)CCN(CC(=O)O)CCN5CC(=O)O)cc4)CC3)cn([C@H]3CC[C@H](O)CC3)c2n1)c1ccccc1` (stereo partly drawn) [MerTK-4]: the values for the pIC50 against MerTK, at Axl and against Flt3 were 7.89, 5.39 and less than 4.52, respectively.
Turning to `CCC[C@H](C)Nc1ncc2c(C3CCN(CCF)CC3)cn([C@H]3CC[C@H](O)CC3)c2n1` [MerTK-5], the negative-log IC50 (pIC50) was 7.82 against MerTK, 5.96 at Axl and 6.00 against Flt3. In addition, the “selectivity over Axl, Tyro3 and Flt3” value at MerTK was “good selectivity”.
As for `C[C@H](Nc1ncc2c(C3CCN(CCF)CC3)cn([C@H]3CC[C@H](O)CC3)c2n1)c1ccccc1` [MerTK-6], the negative logarithm of the IC50 (pIC50) at MerTK was 7.43; against Axl, 5.68; at Flt3, 5.26. Also, on MerTK, the “selectivity over Axl, Tyro3 and Flt3” value is given as “good selectivity”.
